Test results from PubChem BioAssay (NCI).
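All cell lines were grown in 96-well plates and treated with compound for 48 hours. TGI: total growth inhibition.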

Tests used:
Test in all cases: inhibition of tumour cell growth, NCI panel, 48 h
ACHN renal = system: ACHN renal
DU-145 prostate = system: DU-145 prostate
HCT-116 colon = system: HCT-116 colon
HL-60(TB) leukemia = system: HL-60(TB) leukemia
HOP-92 NSCLC = system: HOP-92 NSCLC
HS 578T breast = system: HS 578T breast
LOX IMVI melanoma = system: LOX IMVI melanoma
MDA-MB-435 = system: MDA-MB-435
NCI-H23 lung = system: NCI-H23 lung
RPMI-8226 leukemia = system: RPMI-8226 leukemia
SR leukemia = system: SR leukemia
U251 CNS = system: U251 CNS
UO-31 renal = system: UO-31 renal

Compound	TGI (ACHN renal) [µM]	TGI (DU-145 prostate) [µM]	TGI (HCT-116 colon) [µM]	TGI (HL-60(TB) leukemia) [µM]	TGI (HOP-92 NSCLC) [µM]	TGI (HS 578T breast) [µM]	TGI (LOX IMVI melanoma) [µM]	TGI (MDA-MB-435) [µM]	TGI (NCI-H23 lung) [µM]	TGI (RPMI-8226 leukemia) [µM]	TGI (SR leukemia) [µM]	TGI (U251 CNS) [µM]	TGI (UO-31 renal) [µM]
CCCCCCCCCCOCCOCCOCCOCCCCC(O)CCCCCCCC1=C[C@H](C)OC1=O (stereo partly specified)	36	41.3	37.7	15.5	29.6	31.1	28	28.2	16.6	24	19.6	23.5	18.3
O=[N+]([O-])C(/C=C(\Cl)[N+](=O)[O-])=C(N1CCCCC1)N1CCCCC1	> 100	> 100	62.4	41.7	> 100	> 100	> 100	30.6	> 100	> 100	51.1	> 100	75.7
O=C(NCCCN(CCCCN(CCCNC(=O)c1cc(S(=O)(=O)O)cc(O)c1O)C(=O)c1cc(S(=O)(=O)O)cc(O)c1O)C(=O)c1cc(S(=O)(=O)O)cc(O)c1O)c1cc(S(=O)(=O)O)cc(O)c1O	> 100	> 100	> 100	> 100	> 100	> 100	> 100	> 100	> 100	–	> 100	> 100	> 100
Cn1cc(-c2nnc(-c3ccc(Cl)cc3)[nH]c2=O)c2ccccc21	> 76.1	> 51.8	> 66.3	> 24	> 100	> 100	> 100	1.4	> 100	44.7	> 100	> 37.5	> 47
O=[N+]([O-])/C(Cl)=C/C(=C1/Nc2ccccc2O1)[N+](=O)[O-]	37.5	41.6	28.6	37.7	63.7	84.1	23.1	32	54.4	66.1	47.1	28.7	35.8
CCOC(=O)/C(=C\NC(C)(C)CO)c1nc2ccccc2[nH]1	97.5	> 100	> 100	> 100	> 100	97.7	> 100	> 100	> 100	> 100	> 100	–	11.7
O=c1[nH]c(=O)n(CCOc2ccc(Cl)cc2)cc1Nc1ccccc1	> 100	> 100	> 100	> 100	> 100	> 100	> 100	> 100	> 100	> 100	> 100	> 100	> 100
COc1cc(C2OC[C@@H]3C(=O)OC[C@H]23)cc(O)c1OC (stereo partly specified)	> 100	> 100	> 100	> 100	> 100	> 100	> 100	> 100	> 100	> 100	> 100	> 100	> 100
Cc1cn(C2CCN(CC3COC(C)(C)O3)O2)c(=O)[nH]c1=O (stereo unspecified)	> 100	> 100	> 100	> 100	> 100	> 100	> 100	> 100	> 100	> 100	> 100	> 100	> 100
CC(C)Cn1cnc2c(Cl)nc3ccccc3c21	> 100	> 100	> 100	62.9	> 100	> 100	> 100	> 100	> 100	> 100	66.6	> 100	> 100
C(#CC1(Nc2ccccc2)CCN(Cc2ccccc2)CC1)C1(Nc2ccccc2)CCN(Cc2ccccc2)CC1	> 56.2	> 56.2	54.2	11.7	33.9	37.2	38.7	> 100	> 56.2	4.88	> 24.8	43.6	> 84.7
O=C(CN=C(CN(c1ccccc1)c1ccccc1)Oc1ccc(Cl)cc1Cl)n1ccnc1	> 100	> 100	> 100	–	> 100	> 100	> 100	> 100	> 100	> 100	> 100	> 100	> 100
Cc1ccc(C(=O)N/N=C(\N=Nc2ccccc2Cl)c2ccc(N(C)C)cc2)cc1	46.1	70.6	> 100	> 100	> 100	> 100	> 100	29.6	> 100	> 100	68.7	> 100	> 100
